Results on 13 compounds are retold here after ChEMBL document CHEMBL1201862, “PubChem BioAssay data set” (2004).

What all share (experiment): NCI-60 cell line screen, 48 h
The test system of assay [1] is HCC 2998.
In assay [2] the test system is SK-MEL-28.
The subject of assay [3] is SF-295.
Assay [4] has as its system COLO 205.
Assay [5] concerns RXF 393.
The subject of assay [6] is SK-OV-3.
Assay [7] deals with A549.
Assay [8] concerns HCT-15.
The test system of assay [9] is A498.
Assay [10] has as its system M14.
Assay [11] has as its system SF-539.
The test system of assay [12] is SN12C.
Assay [13] concerns CCRF-CEM.
Assay [14] deals with ACHN.
Assay [15] concerns KM12.
The test system of assay [16] is SK-MEL-2.
For assay [17], the system named is CAKI-1.
The subject of assay [18] is SR.

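Growth conditions: 96-well plates. Treatment: test compound, 48 hours, 5 concentrations. Analysis: linear interpolation between bracketing concentrations; unreached endpoints set to highest concentration. GI50: concentration for 50% inhibition of growth.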 Calls of active or inactive are those of the source. Rule as the data show it: active = GI50 up to about 1.1 µM and inactive = higher.

For the compound `C/C(=N\N=C(\N)S)c1ccc(Oc2ccccc2)cc1`, the GI50 in [1] is 7.93 µM (inactive); in assay [2], 11.7 µM (inactive); in assay [3] it was 8.07 µM (inactive); in assay [4] it was 8.36 µM (inactive); in [5], 10.3 µM (inactive); in assay [6], 16.2 µM (inactive). Besides, the GI50 in assay [7] is 18.7 µM (inactive); in assay [8] it was 3.99 µM; in assay [9], 13.7 µM (inactive); in [10], 9.98 µM (inactive); in assay [11] it was 5.38 µM (inactive); in assay [12], 11.4 µM (inactive). In addition, the GI50 is 5.04 µM (inactive) in [13] and 10.3 µM (inactive) in assay [14].
Regarding `O=c1ncc(F)cn1C1OC(CO)C(O)C1O` (stereo not given), the GI50 in assay [1] was 16.9 µM (inactive); in assay [2] it was > 45.6 µM (inactive); in assay [3] it was > 29.7 µM (inactive); in assay [15], > 30.5 µM (inactive); in assay [16], > 28.3 µM (inactive); in assay [4] it was > 24.6 µM (inactive). Besides, the GI50 in assay [5] is > 100 µM (inactive); in assay [6], > 42.6 µM (inactive); in assay [17], 15.5 µM (inactive); in assay [7], > 36.6 µM (inactive); in [8] it was over 100 µM; in assay [9] it was > 44.2 µM (inactive). The GI50 in assay [10] is > 52 µM (inactive); in assay [11], > 34.9 µM (inactive); in [12], > 17.4 µM (inactive); in [13], 14.7 µM (inactive); in [14], > 44 µM (inactive).
In the case of `O=C1c2cccc3cc([N+](=O)[O-])cc(c23)C(=O)N1CCCN1CCN(CCCN2C(=O)c3cccc4cc([N+](=O)[O-])cc(c34)C2=O)CC1`, the GI50 is 0.0625 µM (active) in assay [1]; 0.0386 µM (active) in [3]; 0.063 µM (active) in [15]; 0.23 µM (active) in [16]; 0.108 µM (active) in assay [4]; 0.0933 µM (active) in assay [5]. In addition, the GI50 in assay [6] is 2.59 µM (inactive); in assay [17], 0.0293 µM (active); in [7], 0.0381 µM (active); in assay [8], 0.0495 µM; in assay [9], 0.272 µM (active); in assay [10], 0.706 µM (active). In addition, the GI50 in [11] was 0.313 µM (active); in [12], 0.08 µM (active); in [13], 0.0803 µM (active); in assay [14], < 0.01 µM (active).
With `CC(N)C(=O)c1ccc(O)cc1` (stereo not given), the GI50 in assay [1], in assay [2], in [3], in assay [15], in assay [16] and in assay [4] was > 100 µM (inactive) in each case. The GI50 is > 100 µM (inactive) in assay [5]; > 100 µM (inactive) in assay [6]; > 100 µM (inactive) in assay [17]; > 100 µM (inactive) in [7]; over 100 µM in assay [8]; > 100 µM (inactive) in [9]. The GI50 in [10], in [11], in [12], in assay [13] and in assay [14] was > 100 µM (inactive) throughout.
`CCC1NCC(=O)c2c1[nH]c1ccccc21` (stereo not given): the GI50 in assay [1], in assay [2], in assay [3], in assay [15], in assay [16] and in [4] was > 100 µM (inactive) in each case. In addition, the GI50 in [6] is > 100 µM (inactive); in assay [17], > 100 µM (inactive); in assay [7] it was > 100 µM (inactive); in assay [8], over 100 µM; in assay [9], > 100 µM (inactive); in [10] it was > 100 µM (inactive). In addition, the GI50 in assay [11], in assay [12], in assay [13], in [18] and in assay [14] was > 100 µM (inactive) in each case.
Take `CC1CN1P1(N2CC2C)=NP(N2CC2C)(N2CC2C)=NP(N2CC2C)(N2CC2C)=N1` (stereo not given): the GI50 in assay [1], in [2], in assay [3], in [4], in assay [5] and in [6] was > 50 µM (inactive) each time. Besides, the GI50 was > 50 µM (inactive) in [17]; > 50 µM (inactive) in [7]; over 50 µM in assay [8]; > 50 µM (inactive) in [9]; > 50 µM (inactive) in assay [10]; > 50 µM (inactive) in assay [11]. Moreover, the GI50 in assay [12], in assay [13], in assay [18] and in [14] was > 50 µM (inactive) each time.
Regarding `COc1ccc(OC)c(NC(=O)C2=C(C)NC(C)=C(C(=O)Nc3cc(OC)ccc3OC)C2c2ccco2)c1`, the GI50 in [15] was > 100 µM (inactive); in assay [16], > 100 µM (inactive); in [4] it was > 100 µM (inactive); in assay [6], > 100 µM (inactive); in assay [17], 89.5 µM (inactive); in [7], > 100 µM (inactive). Further, the GI50 in assay [8] was over 100 µM; in [9], > 100 µM (inactive); in assay [10], > 100 µM (inactive); in assay [11], > 100 µM (inactive); in [12], > 100 µM (inactive); in assay [13] it was > 100 µM (inactive). The figures for the GI50 in [18] and in [14] were 64.6 µM (inactive) and > 100 µM (inactive), respectively.
For the compound `COc1ccc(OC)c(/C=C2\CCc3ccccc3C2=O)c1`, the GI50 was 2 µM (inactive) in assay [1]; 5.12 µM (inactive) in assay [2]; 3.35 µM (inactive) in assay [3]; 3.05 µM (inactive) in [15]; 2.93 µM (inactive) in assay [16]; 3.18 µM (inactive) in assay [4]. The GI50 in [5] is 1.76 µM (inactive); in assay [6], 2.58 µM (inactive); in [17] it was 4.65 µM (inactive); in [7], 2.25 µM (inactive); in assay [8], 3.91 µM; in assay [9], 2.61 µM (inactive). Moreover, the GI50 in assay [10] was 3.59 µM (inactive); in [11] it was 2.6 µM (inactive); in [12], 5.48 µM (inactive); in [13], 2.33 µM (inactive); in [14], 7.26 µM (inactive).
In the case of `COc1ccc(/C(Cl)=C/c2cc(OC)ccc2OC)cc1`, the GI50 in assay [1] is 87.5 µM (inactive); in assay [2] it was 79.6 µM (inactive); in assay [3], 51.4 µM (inactive); in assay [4], > 100 µM (inactive); in assay [5] it was 20.5 µM (inactive); in [6], 99.8 µM (inactive). Further, the GI50 in assay [7] is 75.2 µM (inactive); in assay [8] it was 53.2 µM; in assay [9] it was 92.9 µM (inactive); in [10], 63.8 µM (inactive); in [11], 64.7 µM (inactive); in assay [12], 56.4 µM (inactive). Also, the figures for the GI50 in assay [13], in [18] and in [14] were 31.8 µM (inactive), 30.6 µM (inactive) and 65.8 µM (inactive), respectively.
In the case of `COc1cc2c3c(c1OCc1ccccc1)NCCC3NCC2` (stereo not given), the GI50 in [1] was > 100 µM (inactive); in assay [3], > 100 µM (inactive); in assay [15], > 100 µM (inactive); in assay [4], > 100 µM (inactive); in [5], 98.2 µM (inactive); in assay [17], > 100 µM (inactive). The GI50 in assay [7] was > 100 µM (inactive); in [8], over 100 µM; in [9], > 100 µM (inactive); in [10] it was > 100 µM (inactive); in assay [11] it was > 100 µM (inactive); in assay [12], > 100 µM (inactive). The GI50 in [13] and in [18] was > 100 µM (inactive) throughout.
In the case of `CCCCN(CCCC)CC(C(=O)Nc1ccc([N+](=O)[O-])cc1[N+](=O)[O-])/C(C)=N\NC(=S)NN` (stereo not given), the GI50 in assay [1], in assay [2], in assay [3], in assay [15], in assay [16] and in [4] was > 100 µM (inactive) each time. The GI50 in [5] is 96.2 µM (inactive); in assay [6], > 100 µM (inactive); in [7] it was > 100 µM (inactive); in assay [9], > 100 µM (inactive); in assay [10] it was > 100 µM (inactive); in assay [11], > 100 µM (inactive). Also, the GI50 is 49.4 µM (inactive) in [13] and 56.6 µM (inactive) in assay [14].
For the compound `O[C@]12CCCC[C@H]1CCC2`, the GI50 in assay [1], in [2], in [3], in assay [15], in [16] and in assay [4] was > 100 µM (inactive) in each case. For the same compound, the GI50 in [5] is > 100 µM (inactive); in [6], > 100 µM (inactive); in assay [17], > 100 µM (inactive); in [7], > 100 µM (inactive); in assay [8], over 100 µM; in assay [9], > 100 µM (inactive). Besides, the GI50 in assay [10], in assay [11], in assay [12], in assay [13] and in assay [14] was > 100 µM (inactive) each time.
As for `CC1=C(N(C)C)C(=O)c2nc3n(c2C1=O)CCC3OC(N)=O` (stereo not given), the GI50 was 18.2 µM (inactive) in [1]; 20.2 µM (inactive) in assay [2]; 15.2 µM (inactive) in assay [3]; 17.2 µM (inactive) in [15]; 15.6 µM (inactive) in assay [16]; 18 µM (inactive) in assay [4]. Moreover, the GI50 in assay [6] was 15.2 µM (inactive); in assay [17] it was 18.5 µM (inactive); in assay [7] it was 18.8 µM (inactive); in assay [8], 14.5 µM; in assay [9] it was 13.2 µM (inactive); in assay [10], 13.6 µM (inactive). For the same compound, the GI50 in [11] is 17.5 µM (inactive); in assay [12] it was 15.2 µM (inactive); in assay [13] it was 15.1 µM (inactive); in assay [18], 31.3 µM (inactive); in assay [14], 16.7 µM (inactive).
